# Active and inactive are the calls of the source. The calls are words filed in the database; no cut-off is given here.
# Legend:
# carboxyesterase = test: Half life of compound assessed as carboxyesterase (unknown origin)-mediated drug degradation at 0.655 x 10^3 uM by HPLC analysis; format: ADME; conditions: human
# H9c2 [1] = test: Cardioprotective activity against t-BHP-induced injury in rat H9c2 cells preincubated for 1 hr followed by t-BHP challenge for 12 hrs by MTT assay; format: functional, cell-based
# H9c2 [2] = test: Induction of mitochondrial biogenesis in rat H9c2 cells assessed as upregulation of PGC-1beta mRNA expression at 30 uM after 24 hrs by RT-PCR analysis relative to control; format: functional, cell-based
# H9c2 [3] = test: Cardioprotective activity against doxorubicin-induced injury in rat H9c2 cells assessed as inhibition of LDH leakage preincubated for 1 hr followed by doxorubicin challenge for 24 hrs; format: functional, cell-based
# H9c2 [4] = test: Cardioprotective activity against doxorubicin-induced injury in rat H9c2 cells preincubated for 1 hr followed by doxorubicin challenge for 24 hrs by MTT assay; format: functional, cell-based
# H9c2 [5] = test: Induction of mitochondrial biogenesis in rat H9c2 cells assessed as mitochondrial DNA replication after 24 hrs by Mitotracker/DAPI/FITC-staining based immunofluorescence analysis relative to control; format: functional, cell-based
# H9c2 [6] = test: Induction of mitochondrial biogenesis in rat H9c2 cells assessed as upregulation of Tfam mRNA expression at 30 uM after 24 hrs by RT-PCR analysis relative to control; format: functional, cell-based
Structure (SMILES),half-life (carboxyesterase),Activity (H9c2 [1]),Activity (H9c2 [2]),Activity (H9c2 [3]),Activity (H9c2 [4]),Activity (H9c2 [5]),Activity (H9c2 [6])
CC(=O)Oc1ccc(CC(OC(C)=O)C(=O)OCc2nc(C)c(C)nc2C)cc1OC(C)=O (stereo not drawn),10.3 min,Active,,,,,
C=CCC(OC(=O)[C@@H](Cc1ccc(OC(C)=O)c(OC(C)=O)c1)OC(C)=O)c1nc(C)c(C)nc1C (stereo partly drawn),11.3 min,Active,,,,,
CC(=O)Oc1ccc(C[C@@H](OC(C)=O)C(=O)OC(C)c2nc(C)c(C)nc2C)cc1OC(C)=O (stereo partly drawn),10.6 min,Active,,,,,
C=CCC(CC=C)(OC(=O)[C@@H](Cc1ccc(OC(C)=O)c(OC(C)=O)c1)OC(C)=O)c1nc(C)c(C)nc1C,20.5 min,Active,Active,Dose-dependent effect,Dose-dependent effect,Active,Active

# Reference: ChEMBL document CHEMBL3734680, “Synthesis and relationship of stability and biological activity of new DSS and TMP conjugates” (Medchemcomm, 2015)
